Assay results reported in PMC3604073, “Chemerin Is an Antimicrobial Agent in Human Epidermis” (PLoS ONE, 2013).

What was measured:
E. coli ATCC 25922 = experiment: Radial diffusion assay (RDA); format: cell-based; details: peptides at 100 µM, low salt conditions
Protocol: The indicated bacteria were grown to mid-logarithmic phase in 10 ml of full-strength (3% w/v) TSB as previously described. The microorganisms were then washed once with 10 mM Tris, pH 7.4. 4×10^6 bacterial CFUs were then added to 15 ml of the underlay agarose gel, consisting of 0.03% (w/v) TSB, 1% (w/v) low electroendosmosis type (EEO) agarose (Sigma) and 0.02% (v/v) Tween 20 (Sigma), with or without 0.15 M NaCl. The underlay was poured into a Ø 144 mm Petri dish. After agarose solidification, 4 mm-diameter wells were punched and 6 µl of chemerin-derived peptides or LL37 (Innovagen AB) was added to each well. Plates were incubated at 37°C for 3 hours to allow diffusion of the peptides. The underlay gel was then covered with 15 ml of molten overlay (6% TSB and 1% Low-EEO agarose in dH2O). Antimicrobial activity of a peptide was visualized as a zone of clearing around each well after 18–24 hours of incubation at 37°C.

E. coli = details: evaluated at 2 µM; cited from earlier work

Molecule	inhibition of growth zones in RDA (E. coli ATCC 25922)	E. coli survival (E. coli) [%]
DWKKPECKVRPNGRKRKCLA [p5, synthetic chemerin-derived peptide]	inhibited growth zones	–
RKCLACIKLGSEDKVLGRLV [p6, synthetic chemerin-derived peptide]	inhibited growth zones	–
pro-chem163S: chemerin precursor (holoprotein) with the inhibitory C-terminal peptide (protein, UniProt Q99969 21-163, looked up, pro-form) pro-form: ELTEAQRRGLQVALEEFHKHPPVQWAFQETSVESAVDTPFPAGIFVRLEFKLQQTSCRKRDWKKPECKVRPNGRKRKCLACIKLGSEDKVLGRLVHCPIETQVLREAEEHQETQCLRVQRAGEDPHSFYFPGQFAFSKALPRS	–	59±13
